Experimental data taken from article PMC6061170, “Synthesis and biological investigations of 3β-aminotropane arylamide derivatives with atypical antipsychotic profile” (Medicinal Chemistry Research, 2018).
Where “and” joins values, the source holds several entries; their conditions need not be identical. Identical values can stand only once. Counter-ions that a name gives are not always drawn. Like-named read-outs stand apart in the source and are kept apart here.

Assays:
dopamine D2 receptors [1] = molecular target: T1, dopamine D2 receptors (Rattus norvegicus, UniProt P61169); assay: Radioligand binding assay, D2 receptors
[2] = molecular target: T2, serotonin 5-HT1A receptors (Rattus norvegicus, UniProt P19327); assay: Radioligand binding assay, 5-HT1A receptors; details: for IC50: rat brain tissues, read-out: 5-HT1A IC50 [nM] ± SEM
T2 construct: from tissue; host or cells: rat brain tissues
T2 sequence (P19327 1-422): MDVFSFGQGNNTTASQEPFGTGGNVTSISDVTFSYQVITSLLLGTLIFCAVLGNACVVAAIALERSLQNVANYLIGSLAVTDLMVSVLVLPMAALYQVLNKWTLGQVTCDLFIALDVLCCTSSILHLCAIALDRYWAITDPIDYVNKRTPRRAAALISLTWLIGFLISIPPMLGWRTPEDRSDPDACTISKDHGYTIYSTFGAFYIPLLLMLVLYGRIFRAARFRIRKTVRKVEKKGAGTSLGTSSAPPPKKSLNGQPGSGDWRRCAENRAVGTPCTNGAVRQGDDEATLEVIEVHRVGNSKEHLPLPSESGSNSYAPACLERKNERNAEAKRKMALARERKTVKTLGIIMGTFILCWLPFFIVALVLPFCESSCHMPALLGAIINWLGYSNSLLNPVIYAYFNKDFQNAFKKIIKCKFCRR
Method: All compounds were tested for their affinities for 5-HT1A, 5-HT2A, and D2 receptors according to previously described procedures (Stefanowicz et al. [2016]).
Competition binding studies were performed according to a previously described procedure in rat brain tissues (Stefanowicz et al. [2016]).

[3] = molecular target: T3, serotonin 5-HT2A receptors (Rattus norvegicus, UniProt P14842); assay: Radioligand binding assay, 5-HT2A receptors; details: for IC50: read-out: 5-HT2A IC50 [nM] ± SEM
T3 construct: from tissue; host or cells: rat brain tissues

CD-1 mice [4] = assay: Spontaneous locomotor activity; format: in vivo; details: for decrease of spontaneous locomotor activity: 10 mg/kg
Albino Swiss mice [5] = assay: Four-plate test
Albino Swiss mice [6] = assay: Forced swim test; details: for Immobility time (s) Mean ± SEM: last 4 min of session
CD-1 mice [7] = assay: MK-801-induced hyperlocomotor activity
CD-1 mice [8] = assay: d-Amphetamine-induced hyperlocomotor activity; details: for decrease of locomotor hyperactivity vs. respective d-amphetamine group: doses of 5 and 10 mg/kg i.p.
[9] = molecular target: T3, serotonin 5-HT2A receptors; design: method as in Słowiński et al. 2011, 2013; Stefanowicz et al. 2016; details: earlier lead structures, Fig. 1/Fig. 2; ref Słowiński et al. 2011, 2013; Stefanowicz et al. 2016; cited from earlier work
dopamine D2 receptors [10] = molecular target: T1, dopamine D2 receptors; design: method as in Słowiński et al. 2011, 2013; Stefanowicz et al. 2016; details: earlier lead structures, Fig. 1/Fig. 2; ref Słowiński et al. 2011, 2013; Stefanowicz et al. 2016; cited from earlier work
[11] = molecular target: T2, serotonin 5-HT1A receptors; details: earlier lead structures, Fig. 1/Fig. 2; ref Słowiński et al. 2011, 2013; Stefanowicz et al. 2016; cited from earlier work
[12] = rat brain tissues, read-out: D2 IC50 [nM] ± SEM
[13] = rat brain tissues, read-out: 5-HT2A Ki [nM] ± SEM
[14] = 10 mg/kg i.p. 30 min before test
[15] = 2.5 mg/kg i.p. 30 min before test
[16] = 5 mg/kg i.p. 30 min before test
[17] = compound 1.25 mg/kg i.p. 30 min + MK-801 0.2 mg/kg
[18] = compound 2.5 mg/kg i.p. 30 min + MK-801 0.2 mg/kg
[19] = compound 5 mg/kg i.p. 30 min + MK-801 0.2 mg/kg
[20] = compound 5 mg/kg i.p. + d-amphetamine 2.5 mg/kg s.c.
[21] = compound 10 mg/kg i.p. + d-amphetamine 2.5 mg/kg s.c.
[22] = 1.25 mg/kg i.p. 30 min before test
[23] = compound 10 mg/kg i.p. 30 min + MK-801 0.2 mg/kg

T3 sequence (P14842 whole entry): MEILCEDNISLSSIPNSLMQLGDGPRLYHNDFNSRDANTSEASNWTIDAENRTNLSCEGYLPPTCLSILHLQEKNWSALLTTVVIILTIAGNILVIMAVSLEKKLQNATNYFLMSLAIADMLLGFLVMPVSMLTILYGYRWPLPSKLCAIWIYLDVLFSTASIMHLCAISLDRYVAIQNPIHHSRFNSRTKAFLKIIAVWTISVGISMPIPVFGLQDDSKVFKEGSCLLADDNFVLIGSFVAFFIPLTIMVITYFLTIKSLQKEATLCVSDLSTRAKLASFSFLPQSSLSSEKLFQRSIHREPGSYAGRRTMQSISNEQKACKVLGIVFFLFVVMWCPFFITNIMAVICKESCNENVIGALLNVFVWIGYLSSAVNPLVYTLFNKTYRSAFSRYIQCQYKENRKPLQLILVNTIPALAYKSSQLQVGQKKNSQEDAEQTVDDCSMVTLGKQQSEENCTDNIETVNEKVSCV
T1 sequence (P61169 1-415 isoform P61169-2): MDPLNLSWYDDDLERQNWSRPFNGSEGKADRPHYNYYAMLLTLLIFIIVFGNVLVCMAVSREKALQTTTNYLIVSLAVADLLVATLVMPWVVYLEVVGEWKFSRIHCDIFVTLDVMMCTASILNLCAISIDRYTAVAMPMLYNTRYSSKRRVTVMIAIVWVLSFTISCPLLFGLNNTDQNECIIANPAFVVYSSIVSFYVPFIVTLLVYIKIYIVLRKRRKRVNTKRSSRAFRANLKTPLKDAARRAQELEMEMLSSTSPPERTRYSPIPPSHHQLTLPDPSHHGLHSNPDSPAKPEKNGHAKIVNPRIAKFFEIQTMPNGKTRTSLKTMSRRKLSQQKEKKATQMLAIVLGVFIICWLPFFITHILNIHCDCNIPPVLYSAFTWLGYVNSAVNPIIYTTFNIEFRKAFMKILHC

Cc1cccc(CN2C3CCC2CC(NC(=O)c2ccc4ccccc4n2)C3)c1 (stereo not drawn) [Compound 12e]
Ki (dopamine D2 receptors [1]): 52.2 ± 3.4 nM
IC50 (dopamine D2 receptors [1]; [12]): 260 ± 16.7 nM
Ki [2]: 55.3 ± 8.3 nM
IC50 [2]: 166 ± 25 nM
IC50 ([3]; rat brain tissues): > 10000 nM
Ki [3, 13]: > 10000 nM
Number of crossings/60 min Mean ± SEM (CD-1 mice [4]; [14]): 1034 ± 255.9 p < 0.05 F(1,18) = 5.4398; p < 0.05 crossings/60 min
effect on spontaneous locomotor activity (CD-1 mice [4]; doses used in hyperlocomotor activity tests): did not change the spontaneous locomotor activity
melting point: 113.8 to 114.7 °C
Number of punished crossings /1 min Mean ± SEM (Albino Swiss mice [5]; [15]): 3.5 ± 0.3 crossings/1 min
Number of punished crossings /1 min Mean ± SEM (Albino Swiss mice [5]; [16]): 2.9 ± 0.3 crossings/1 min
Number of punished crossings /1 min Mean ± SEM (Albino Swiss mice [5]; [14]): 3.8 ± 0.5 F(3,36) = 1.3827; NS crossings/1 min
Immobility time (s) Mean ± SEM (Albino Swiss mice [6]; [15]): 172.14 ± 11.6 s
Immobility time (s) Mean ± SEM (Albino Swiss mice [6]; [14]): 183.33 ± 12.3 F(3,30) = 1.2074; NS s
effect on MK-801-induced hyperlocomotor activity (CD-1 mice [7]; 5 mg/kg, tendency to decrease): did not reach a statistically significant level
Number of crossings/60 min Mean ± SEM (CD-1 mice [7]; compound 0.625 mg/kg i.p. 30 min + MK-801 0.2 mg/kg): 4375.1 ± 583.4; ns, ns crossings/60 min
Number of crossings/60 min Mean ± SEM (CD-1 mice [7]; [17]): 4019.3 ± 341.3; ns, ns crossings/60 min
Number of crossings/60 min Mean ± SEM (CD-1 mice [7]; [18]): 5440.1 ± 937.3 ns, ns crossings/60 min
Number of crossings/60 min Mean ± SEM (CD-1 mice [7]; [19]): 3580.7 ± 384.9; ns, ns F(5,48) = 2.8885; p < 0.05 crossings/60 min
Number of crossings/60 min Mean ± SEM (CD-1 mice [8]; compound 2.5 mg/kg i.p. + d-amphetamine 2.5 mg/kg s.c.): 2993.0 ± 301.0; p < 0.01 vs. amph.; ns vs. contr crossings/60 min
Number of crossings/60 min Mean ± SEM (CD-1 mice [8]; [20]): 2651.0 ± 512.6; p < 0.01 vs. amph.; ns vs. contr crossings/60 min
Number of crossings/60 min Mean ± SEM (CD-1 mice [8]; [21]): 909.9 ± 11.3; p < 0.0001 vs. amph.; ns vs. contr F(4,42) = 10.584; p < 0.0001 crossings/60 min
decrease of locomotor hyperactivity vs. respective d-amphetamine group (CD-1 mice [8]): 60–86%

Cc1ccc(CN2C3CCC2CC(NC(=O)c2ccc4ccccc4n2)C3)cc1 (stereo not drawn) [Compound 12i, N-[8-(4-methylbenzyl)-8-azabicyclo[3.2.1]oct-3β-yl)]-quinoline-2-carboxamide oxalate]
IC50 (dopamine D2 receptors [1]): 37 ± 2.1 nM
Ki (dopamine D2 receptors [1]): 7.4 ± 0.4 nM
Ki [2]: 43.5 ± 1.3 nM
IC50 [2]: 131 ± 4.4 nM
IC50 ([3]; rat brain tissues): > 10000 nM
Ki [3, 13]: > 10000 nM
Number of crossings/60 min Mean ± SEM (CD-1 mice [4]; [22]): 1573.6 ± 149.3 crossings/60 min
Number of crossings/60 min Mean ± SEM (CD-1 mice [4]; [15]): 2676.0 ± 336.7; p < 0.01 crossings/60 min
Number of crossings/60 min Mean ± SEM (CD-1 mice [4]; [16]): 1135.8 ± 184.3 F(3,34) = 8.8733; p < 0.001 crossings/60 min
decrease of spontaneous locomotor activity (CD-1 mice [4]): about 70%
Number of punished crossings /1 min Mean ± SEM (Albino Swiss mice [5]; [15]): 3.1 ± 0.3 crossings/1 min
Number of punished crossings /1 min Mean ± SEM (Albino Swiss mice [5]; [16]): 2.3 ± 0.4 crossings/1 min
Number of punished crossings /1 min Mean ± SEM (Albino Swiss mice [5]; [14]): 1.7 ± 0.4; p < 0.05 F(3,35) = 4.2954; p < 0.05 crossings/1 min
Immobility time (s) Mean ± SEM (Albino Swiss mice [6]; [22]): 132.00 ± 2.93 s
Immobility time (s) Mean ± SEM (Albino Swiss mice [6]; [15]): 149.89 ± 12.7 s
Immobility time (s) Mean ± SEM (Albino Swiss mice [6]; [16]): 219.67 ± 1.43; p < 0.05 F(3,26) = 7.5750; p < 0.001 s
effect on MK-801-induced hyperlocomotor activity (CD-1 mice [7]; 5 mg/kg and 10 mg/kg i.p.): significantly reduced
Number of crossings/60 min Mean ± SEM (CD-1 mice [7]; [19]): 2432.8 ± 526.6; ns vs. contr p < 0.01 vs. MK crossings/60 min
Number of crossings/60 min Mean ± SEM (CD-1 mice [7]; [23]): 805.4 ± 147.2 ns vs. contr p < 0.0001 vs. MK F(3,30) = 14.206; p < 0.0001 crossings/60 min
Number of crossings/60 min Mean ± SEM (CD-1 mice [8]; [20]): 1771.3 ± 470.4; p < 0.01 vs. amph.; ns vs. contr crossings/60 min
Number of crossings/60 min Mean ± SEM (CD-1 mice [8]; [21]): 2046.2 ± 63.1; p < 0.01 vs. amph.; ns vs. contr F(3,34) = 6.5110; p < 0.01 crossings/60 min
decrease of locomotor hyperactivity vs. respective d-amphetamine group (CD-1 mice [8]): 60–86%

Nc1ccccc1CN1C2CCC1CC(NC(=O)c1ccc3ccccc3c1)C2 (stereo not drawn) [Compound 19a]
Ki (dopamine D2 receptors [1]): 41.5 ± 1.5 nM
IC50 (dopamine D2 receptors [1]; [12]): 209 ± 5.5 nM
Ki [2]: 53 ± 2 nM
IC50 [2]: 159 ± 5.5 nM
Ki [3]: 46.8 ± 5.5 nM
IC50 ([3]; rat brain tissues): 173 ± 19.3 nM
Number of crossings/60 min Mean ± SEM (CD-1 mice [4]; [15]): 1634.4 ± 511.9 F(2,27) = 0.7417; NS crossings/60 min
Number of crossings/60 min Mean ± SEM (CD-1 mice [4]; [16]): 1480.4 ± 302.3 crossings/60 min
decrease of spontaneous locomotor activity (CD-1 mice [4]): about 70%
Number of crossings/60 min Mean ± SEM (CD-1 mice [4]; [14]): 491.6 ± 126.5 F(2,26) = 5.3557; p < 0.05 crossings/60 min
melting point: 172.7 to 173.3 °C
Number of punished crossings /1 min Mean ± SEM (Albino Swiss mice [5]; [15]): 3.2 ± 0.5 crossings/1 min
Number of punished crossings /1 min Mean ± SEM (Albino Swiss mice [5]; [16]): 1.1 ± 0.2 crossings/1 min
Number of punished crossings /1 min Mean ± SEM (Albino Swiss mice [5]; [14]): 3.2 ± 0.5 F(3,33) = 5.6670; p < 0.01 crossings/1 min
Immobility time (s) Mean ± SEM (Albino Swiss mice [6]; [22]): 120.00 ± 16.6 s
Immobility time (s) Mean ± SEM (Albino Swiss mice [6]; [15]): 128.89 ± 12.3 s
decrease of immobility time vs. respective control group (Albino Swiss mice [6]; 5 mg/kg i.p.): about 43%
Immobility time (s) Mean ± SEM (Albino Swiss mice [6]; [16]): 96.56 ± 16.2; p < 0,01 F(3,31) = 4.5279; p < 0.01 s
effect on MK-801-induced hyperlocomotor activity (CD-1 mice [7]; 5 mg/kg and 10 mg/kg i.p.): significantly reduced
Number of crossings/60 min Mean ± SEM (CD-1 mice [7]; [17]): 4646.4 ± 675.6; ns, ns crossings/60 min
Number of crossings/60 min Mean ± SEM (CD-1 mice [7]; [18]): 3832.0 ± 991.3; ns, ns F(3,33) = 5.2088; p < 0.01 crossings/60 min
Number of crossings/60 min Mean ± SEM (CD-1 mice [7]; [19]): 2915.4 ± 580.2; p < 0.001 vs. MK; ns vs. contr F(2,27) = 16.679; p < 0.0001 crossings/60 min
Number of crossings/60 min Mean ± SEM (CD-1 mice [7]; [23]): 808.7 ± 66.3; p < 0.0001 vs. Mk; p < 0.05 vs. contr F(2,20) = 23.813; p < 0.001 crossings/60 min
Number of crossings/60 min Mean ± SEM (CD-1 mice [8]; [20]): 4328.6 ± 1146.8 crossings/60 min
Number of crossings/60 min Mean ± SEM (CD-1 mice [8]; [21]): 950.0 ± 411.7; p < 0.01 vs. amph.; ns vs. contr F(3,35) = 5.6910; p < 0.01 crossings/60 min
activity in d-amphetamine-induced hyperlocomotor activity test (CD-1 mice [8]; i.p.): active in this test only at a dose of 10 mg/kg i.p.

C[C@]12N[C@H](Cc3ccccc31)c1ccccc12 [MK-801, reference compound]
Number of crossings/60 min Mean ± SEM (CD-1 mice [7]; MK-801 alone 0.2 mg/kg i.p. 15 min before test): 4708.1 ± 522.1; p < 0.01 vs. contr crossings/60 min and 6247.1 ± 1063.8; p < 0.01 vs. contr crossings/60 min and 8757.9 ± 1378; p < 0.00001 vs. contr crossings/60 min and 6329.9 ± 1012.5; p < 0.05 vs. contr crossings/60 min

O=C(NC1CC2CCC(C1)N2Cc1cccc(Br)c1)c1ccc2ccccc2c1 (stereo not drawn) [R = -Br]
Ki [9]: 106 nM

Cc1cccc(CN2C3CCC2CC(NC(=O)c2ccc4ccccc4c2)C3)c1 (stereo not drawn) [R = -CH3]
Ki [9]: 231 nM

O=C(NC1CC2CCC(C1)N2Cc1ccccc1)c1ccc2ccccc2c1 (stereo not drawn) [compound A]
Ki (dopamine D2 receptors [10]): 82.4 nM
Ki [11]: 304 nM
Ki [9]: 2.5 nM

C[C@H](N)Cc1ccccc1 [d-amphetamine, reference compound]
Number of crossings/60 min Mean ± SEM (CD-1 mice [8]; d-amphetamine alone 2.5 mg/kg s.c. 30 min before test): 6819.9 ± 1534.7; p < 0.05 vs. contr crossings/60 min and 6553.1 ± 1214.5; p < 0.001 vs. contr crossings/60 min
